Several values for one entry are separate records, joined by “and”; a condition that tells them apart may be missing. Equal entries are not always repeated.
What was measured:
[1] = system: A431 epidermoid carcinoma xenografts; assay: Tumor growth inhibition, subcutaneous A431 xenografts; format: in vivo, athymic nude mice; conditions: for average tumor size as % of the control tumors: intravenous, twenty-seven days following onset of therapy
Experimental: (§1) Subcutaneous tumors of N87, LOVO, A431/Le^y, LS174T and L2987 were grown in athymic nude mice (Charles River, Wilmington, Mass.). Two-month-old female mice were injected with respectively 5×10^6 N87, LOVO, A431/Le^y or LS174T cells per mouse. L2987 cells were injected in male nude mice that were between 7 and 8 weeks old. To grow tumors, N87 cells had to be mixed (1:1, vol/vol) with […]® (Collaborative Biomedical Products, Belford, Mass.) prior to injection. Two perpendicular diameters of the tumor were measured by means of calipers at time intervals specified in the result section. The tumor volume was calculated according to the formula of Attia&Weiss: A^2×B×0.4. A and B are symbols for the smaller and the larger tumor diameter, respectively.
[…] Mice with xenografts of approximately 80 mm^3 were selected prior to treatment. The amounts of CalichDMH or conjugate given are expressed in calicheamicn equivalents.
Both T and C are determined at the same day following initiation of treatment.

N87 xenografts = assay: Tumor growth inhibition, subcutaneous N87 xenografts; format: in vivo, athymic nude mice
Experimental: as §1, with “respectively. The treatment schedules, dose and number of mice per group are specified in the result section and in the figure legends.” for “respectively.”
(§2) As shown in Table 2 (tumor volume reduction of CD33-tumor xenografts following treatment (T) with hp67.6-AcBut-CalichDMH and expressed as a percentage of controls treated with vehicle (T/C %)), hp67.6-AcBut-CalichDMH inhibited tumor growth of human tumor xenografts with diverse histiotypic origin. […] This value is the average tumor volume of a group of mice that were treated with hp67.6-AcBut-CalichDMH (T) expressed as a percentage of the average tumor volume of a control group (C). Both T and C are determined at the same day following initiation of treatment. The T/C-values in table II were derived from 27 independent experiments and were determined between 17 and 34 days after injection of the first dose of hp67.6-AcBut-CalichDMH. […] Significant inhibition was also observed when lower amounts of the conjugate were administered.

HT29 xenografts = assay: Tumor growth inhibition, subcutaneous HT29 xenografts; format: in vivo, athymic nude mice; conditions: 4.00 μg per dose, Q4D×3, 33 days after first dose
LOVO xenografts = assay: Tumor growth inhibition, subcutaneous LOVO xenografts; format: in vivo, athymic nude mice; conditions: for T/C (%): LOVO, 4.00 μg per dose, Q4D×3
Experimental: as §1, with “respectively. The treatment schedules, dose and number of mice per group are specified in the result section and in the figure legends.” for “respectively.”
as §2

L2987 xenografts = assay: Tumor growth inhibition, subcutaneous L2987 xenografts; format: in vivo, athymic nude mice
Experimental: as §1, with “respectively. The treatment schedules, dose and number of mice per group are specified in the result section and in the figure legends.” for “respectively.”
as §2

PC14PE6 xenografts = assay: Tumor growth inhibition, subcutaneous PC14PE6 xenografts; format: in vivo, athymic nude mice
MDAMB435/5T4 xenografts = assay: Tumor growth inhibition, subcutaneous MDAMB435/5T4 xenografts; format: in vivo, athymic nude mice
A431/Le^Y xenografts = assay: Tumor growth inhibition, subcutaneous A431/LeY xenografts; format: in vivo, athymic nude mice
Experimental: as §1, with “respectively. […]” for “respectively.”
As shown in Table 2 (tumor volume reduction of CD33-tumor xenografts following treatment (T) with hp67.6-AcBut-CalichDMH and expressed as a percentage of controls treated with vehicle (T/C %)), hp67.6-AcBut-CalichDMH inhibited tumor growth of human tumor xenografts with diverse histiotypic origin. […] This value is the average tumor volume of a group of mice that were treated with hp67.6-AcBut-CalichDMH (T) expressed as a percentage of the average tumor volume of a control group (C). Both T and C are determined at the same day following initiation of treatment. […]

KB 8.5 xenografts = assay: Tumor growth inhibition, subcutaneous KB 8.5 xenografts; format: in vivo, athymic nude mice; conditions: 4.00 μg per dose, Q4D×3, 22 days after first dose
LNCaP xenografts = assay: Tumor growth inhibition, subcutaneous LNCaP xenografts; format: in vivo, athymic nude mice
PC3MM2 xenografts = assay: Tumor growth inhibition, subcutaneous PC3MM2 xenografts; format: in vivo, athymic nude mice; conditions: 4.00 μg per dose, Q4D×3, 29 days after first dose
[2] = In vivo distribution of 125I-labeled conjugate in A431 tumor-bearing mice; parameters: species or system female nude mice
Experimental: Gemtuzumab ozogamicin was labeled with ^125I using the Bolton-Hunter reagent (NEN, Boston, Mass.). A group of 30 tumor-bearing female nude mice were injected in the lateral tail vein with ^125I-labeled conjugate 20 μCi/[…]. The tumor weight at the time of injection was approximately 1 g. Groups of 5 mice were killed by CO2 inhalation at 2, 6, 24, 48, 72 and 96 h following the injection. The amount of γ radiation in the tissues as specified in FIG. 2 was determined at these time points. Biodistribution of the conjugate was expressed as a percentage of the injected dose per gram tissue (% ID/g) or as a percentage of the blood level at a given time point (% Blood). Steadily increasing concentrations of hp67.6-AcBut-CalichDMH were exclusively observed in tumor tissue. The doubling time of accumulation is 150 h for A431 tumors.
The kinetics of hp67.6-AcBut-CalichDMH in various mouse tissues and in CD33-negative A431-tumor xenografted tumor were compared. Following injection of 200 µg (20 μCi) ^125I labeled conjugate, the amount of radioactive label was measured in various tissues at 2, 6, 24, 48, 72 and 96 h (FIG. 2). The amount of radioactive material was expressed relative to the amount present in whole blood at the time of measurement (% Blood, Y1 axes in FIG. 2). Percent blood (% Blood) is given by the formula, 100×Bq per gram tissue/Bq per gram blood. In addition, the amount of radioactive material was also expressed relative to total amount of conjugate given (% ID/g, Y2 axes in FIG. 2). Only a marginal amount of 125I labeled conjugate is retained in the brain. […] The % Blood was on average 3.5%.

[3] = intraperitoneally Q4D×3, equivalent or higher doses than hp67.6-AcBut-CalichDMH (FIGS. 1B and 1C)
[4] = intravenous administration, same dose, frequency and interval (Q4D×3)
[5] = 1.00 μg per dose, 28 days after first dose
[6] = 2.00 μg per dose, 28 days after first dose
[7] = 2.00 μg per dose, 30 days after first dose
[8] = 4.00 μg per dose, Q4D×3, 28 days after first dose
[9] = 4.00 μg per dose, Q4D×3, 30 days after first dose
[10] = 2.00 μg per dose, 29 days after first dose
[11] = 4.00 μg per dose, Q4D×3, 29 days after first dose

## CCN(C(C)=O)[C@H]1CO[C@@H](O[C@H]2[C@H](O[C@H]3C#C/C=C\C#C[C@]4(O)CC(=O)C(NC(=O)OC)=C3/C4=C\CSSC(C)(C)CC(=O)NN)O[C@H](C)[C@@H](NO[C@H]3C[C@H](O)[C@H](SC(=O)c4c(C)c(I)c(O[C@@H]5O[C@@H](C)[C@H](O)[C@@H](OC)[C@H]5O)c(OC)c4OC)[C@@H](C)O3)[C@@H]2O)C[C@@H]1OC [CalichDMH, N-acetyl-γ-calicheamicin dimethyl hydrazide]
[1]; [3]
  tumor growth inhibition of A431 xenografts: did not inhibit tumor growth
[1]; [4]
  tumor growth inhibition of A431 xenografts: did not yield significant tumor growth inhibition

## hp67.6-AcBut-CalichDMH: antibody against CD33 (hp67.6) bound to N-acetyl gamma calicheamicin dimethyl hydrazide by the acid labile AcBut linker
N87 xenografts; [5]
  T/C (%): 55%
N87 xenografts; [6]
  T/C (%): 41%
N87 xenografts; [7]
  T/C (%): 54%
N87 xenografts; 4.00 μg per dose, Q4D×3, 27 days after first dose
  T/C (%): 19%
N87 xenografts; [8]
  T/C (%): 60%
N87 xenografts; [9]
  T/C (%): 48%
N87 xenografts; 4.00 μg per dose, Q4D×3, 31 days after first dose
  T/C (%): 39%
N87 xenografts; 4.00 μg per dose, Q4D×3, 33 days after first dose
  T/C (%): 39% and 42%
HT29 xenografts
  T/C (%): 36%
LOVO xenografts; LOVO colon carcinoma, 4 μg CalichDMH per mouse, intraperitoneally Q4D×3 (FIG. 5)
  T/Cmin value (minimum T/C-value observed during an experiment): exceptionally high
LOVO xenografts; 25 days after first dose
  T/C (%): 80%
LOVO xenografts; 29 days after first dose
  T/C (%): 47% and 76%
L2987 xenografts; 0.75 μg per dose, 21 days after first dose
  T/C (%): 33%
L2987 xenografts; 1.50 μg per dose, 21 days after first dose
  T/C (%): 77%
L2987 xenografts; [7]
  T/C (%): 5%
L2987 xenografts; 3.00 μg per dose, 21 days after first dose
  T/C (%): 5%
L2987 xenografts; [9]
  T/C (%): 1%
L2987 xenografts; 4.00 μg per dose, Q4D×3, 35 days after first dose
  T/C (%): 1%
PC14PE6 xenografts; 1.00 μg per dose, 29 days after first dose
  T/C (%): 52%
PC14PE6 xenografts; 2.00 μg per dose, 17 days after first dose
  T/C (%): 59%
PC14PE6 xenografts; [10]
  T/C (%): 42%
PC14PE6 xenografts; 4.00 μg per dose, Q4D×3, 17 days after first dose
  T/C (%): 27%
PC14PE6 xenografts; 4.00 μg per dose, Q4D×3, 22 days after first dose
  T/C (%): 15%
PC14PE6 xenografts; [11]
  T/C (%): 14%
MDAMB435/5T4 xenografts; [10]
  T/C (%): 45%
MDAMB435/5T4 xenografts; [11]
  T/C (%): 32%
MDAMB435/5T4 xenografts; 4.00 μg per dose, Q4D×3, 34 days after first dose
  T/C (%): 30%
[1]; 3 doses of 4 μg, intraperitoneally Q4D×3, up to 27 days following treatment
  growth of A431 xenografts: significantly (p=0.03) inhibited
[1]; A431, 1.00 μg per dose, 27 days after first dose
  T/C (%): 146%
[1]; A431, 2.00 μg per dose, 27 days after first dose
  T/C (%): 72%
[1]; A431, 2 μg/dose, intraperitoneally Q4D×3 (FIG. 1A)
  time xenografts remained significantly (p=0.004) smaller than the controls: 21 days
[1]; A431, 4.00 μg per dose, Q4D×3, 27 days after first dose
  T/C (%): 21% and 35%
[1]; A431, 4.00 μg per dose, Q4D×3, 28 days after first dose
  T/C (%): 12%
[1]; A431, 2 μg Q4D×3
  average tumor size as % of the control tumors: 23%
[1]; A431, 4 μg Q4D×3
  average tumor size as % of the control tumors: 11%
[1]; [4]
  tumor growth inhibition of A431 xenografts: Significant growth inhibition
A431/Le^Y xenografts; [10]
  T/C (%): 37%
A431/Le^Y xenografts; [11]
  T/C (%): <1%
KB 8.5 xenografts
  T/C (%): 27%
LNCaP xenografts; 0.50 μg per dose, 28 days after first dose
  T/C (%): 102%
LNCaP xenografts; [5]
  T/C (%): 59%
LNCaP xenografts; [6]
  T/C (%): 30%
LNCaP xenografts; [10]
  T/C (%): 34%
LNCaP xenografts; [8]
  T/C (%): 24%
LNCaP xenografts; [11]
  T/C (%): 7%
PC3MM2 xenografts
  T/C (%): 33%
[2]; A431 tumor tissue, 2 to 96 h
  % ID/g value in function of time, tumor tissue: steady increase
[2]; A431 tumors, 125I-labeled conjugate, lateral tail vein
  doubling time of accumulation in tumor: 150 h
[2]; brain, within 96 hours, 125I-labeled conjugate
  % Blood (100×Bq per gram tissue/Bq per gram blood), brain, on average: 3.5%
[2]; heart, intestine and spleen, after injection, then steadily decreased
  time of highest % Blood-value: 2 h
[2]; liver and striated muscle
  time of peak of the % Blood-value: 48 h
[2]; normal tissues, 2 to 96 h
  % ID/g in function of time, all the other tissues examined: decreased in function of time
[2]; skin
  time after which % Blood-value reached a plateau: 24 h

## hp67.6-Amide-CalichDMA: hp67.6 linked to CalichDMA with the acid stabile Amide (4-mercapto-4-methyl-pentanoic acid) linker
[1]; [3]
  tumor growth inhibition of A431 xenografts: did not inhibit tumor growth
[1]; [4]
  tumor growth inhibition of A431 xenografts: did not yield significant tumor growth inhibition
